Measurements taken from ChEMBL document CHEMBL1140223, “Novel multifunctional acyloxyalkyl ester prodrugs of 5-aminolevulinic acid display improved anticancer activity independent and dependent on photoactivation” (J Med Chem, 2008).
Calls of active or inactive are those of the source. No cut-off for these calls is given here.

Key:
[1] = system: U-251; assay: Induction of histone H4 hyperacetylation in human U251 cells at 100 uM after 4 hrs by Western blot relative to control; type: functional
[2] = system: U-251; assay: Inhibition of 26S proteasome activity in human U251 cells at 100 uM after 48 hrs relative to control; type: cell-based; details: values are per cent of control
[3] = system: U-251; assay: Increase in pERK expression levels in human U251 cells at 100 uM after 2 hrs by Western blot relative to control; type: functional
[4] = system: U-251; assay: Inhibition of 26S proteasome activity in human U251 cells at 100 uM after 24 hrs relative to control; type: cell-based
[5] = system: U-251; assay: Induction of necrosis in human U251 cells assessed as necrotic cells at 100 uM after 48 hrs using annexin-V FITC and PI staining by flow cytometry in presence of Ac-LEHD-CHO; type: functional
[6] = system: U-251; assay: Induction of apoptosis in human U251 cells assessed as increase in cleaved caspase 3 level after 24 hrs by Western blot; type: functional, cell-based
[7] = system: U-251; assay: Inhibition of 26S proteasome activity in human U251 cells at 100 uM after 48 hrs in presence of N-acetyl-L-cysteine relative to control; type: cell-based; details: values are per cent of control
[8] = system: U-251; assay: Increase in ROS production in human U251 cells at 50 uM after 4 hrs by FACS flow cytometry in presence of N-acetyl-L-cysteine; type: functional, cell-based
[9] = system: U-251; assay: Induction of apoptosis in human U251 cells assessed as early apoptotic cells at 100 uM after 48 hrs using annexin-V FITC and PI staining by flow cytometry; type: functional
[10] = system: U-251; assay: Increase in protoporphyrin 9 levels in human U251 cells at 100 uM after 24 hrs relative to control; type: functional
[11] = system: U-251; assay: Increase in protoporphyrin 9 levels in human U251 cells at 200 uM after 24 hrs relative to control; type: functional
[12] = system: U-251; assay: Induction of necrosis in human U251 cells assessed as necrotic cells at 100 uM after 48 hrs using annexin-V FITC and PI staining by flow cytometry in presence of Z-Asp-2,6-dichlorobenzoyloxymethylketone; type: functional
[13] = system: U-251; assay: Induction of apoptosis in human U251 cells assessed as increase in cleaved caspase 9 level after 24 hrs by Western blot; type: functional, cell-based
[14] = system: U-251; assay: Increase in p-c-Jun expression levels in human U251 cells at 100 uM after 2 hrs by Western blot relative to control; type: functional
[15] = system: U-251; assay: Increase in heme level in human U251 cells at 100 uM after 48 hrs by Western blot relative to control; type: functional
[16] = system: U-251; assay: Increase in CDKp21 expression levels in human U251 cells at 100 uM after 4 hrs by Western blot; type: functional, cell-based
[17] = system: U-251; assay: Increase in ROS production in human U251 cells at 50 uM after 4 hrs by FACS flow cytometry; type: functional
[18] = system: U-251; assay: Induction of necrosis in human U251 cells assessed as necrotic cells at 100 uM after 48 hrs using annexin-V FITC and PI staining by flow cytometry; type: functional
[19] = system: U-251; assay: Induction of apoptosis in human U251 cells assessed as increase in full length caspase 8 level after 24 hrs by Western blot; type: functional, cell-based
[20] = system: U-251; assay: Induction of histone H4 hyperacetylation in human U251 cells at 100 uM after 24 hrs by Western blot relative to control; type: functional
[21] = system: U-251; assay: Induction of apoptosis in human U251 cells assessed as late apoptotic cells at 100 uM after 48 hrs using annexin-V FITC and PI staining by flow cytometry in presence of Ac-LEHD-CHO; type: functional
[22] = system: U-251; assay: Induction of apoptosis in human U251 cells assessed as late apoptotic cells at 100 uM after 48 hrs using annexin-V FITC and PI staining by flow cytometry in presence of Z-Asp-2,6-dichlorobenzoyloxymethylketone; type: functional
[23] = system: U-251; assay: Induction of apoptosis in human U251 cells assessed as late apoptotic cells at 100 uM after 48 hrs using annexin-V FITC and PI staining by flow cytometry; type: functional
[24] = system: MCF7; assay: Cytotoxicity against human MCF7 cells after 72 hrs by Hoechst test; type: functional, cell-based; details: MCF7, 72 h
[25] = system: U-251; assay: Antiproliferative activity against human U251 cells assessed as PpIX release pretreated 72 hrs before 360-410 nm light photosensitization measured after 48 hrs by Hoechst test; type: functional, cell-based
[26] = system: U-251; assay: Induction of apoptosis in human U251 cells assessed as mitochondrial membrane potential dissipation at 100 uM after 24 hrs using JC1 dye by FACS relative to control; type: functional
[27] = Cytotoxicity against human MCF7/DX cells after 72 hrs by Hoechst test; type: functional, cell-based
[28] = system: U-251; assay: Increase in heme level in human U251 cells assessed as porphobilinogen deaminase level at 100 uM after 2 hrs by Western blot in presence of cycloheximide; type: functional, cell-based
[29] = system: HL-60; assay: Cytotoxicity against human HL60 cells after 72 hrs by MTT assay; type: functional, cell-based; details: HL-60, 72 h
[30] = system: U-251; assay: Induction of apoptosis in human U251 cells assessed as viable cells at 100 uM after 48 hrs using annexin-V FITC and PI staining by flow cytometry in presence of Ac-LEHD-CHO; type: functional; details: U-251, 48 h, read-out: Activity
[31] = system: U-251; assay: Reduction in c-myc expression levels in human U251 cells at 100 uM after 4 hrs by Western blot; type: functional, cell-based
[32] = system: U-251; assay: Increase in pH2AX expression levels in human U251 cells at 100 uM after 2 hrs by Western blot; type: functional, cell-based
[33] = system: U-251; assay: Induction of apoptosis in human U251 cells assessed as early apoptotic cells at 100 uM after 48 hrs using annexin-V FITC and PI staining by flow cytometry in presence of Z-Asp-2,6-dichlorobenzoyloxymethylketone; type: functional
[34] = system: U-251; assay: Cytotoxicity against human U251 cells assessed as ROS production by Hoechst test in presence of N-acetyl-L-cysteine; type: functional, cell-based
[35] = system: U-251; assay: Induction of apoptosis in human U251 cells assessed as viable cells at 100 uM after 48 hrs using annexin-V FITC and PI staining by flow cytometry in presence of Z-Asp-2,6-dichlorobenzoyloxymethylketone; type: functional; details: U-251, 48 h, read-out: Activity
[36] = system: U-251; assay: Induction of apoptosis in human U251 cells assessed as viable cells at 100 uM after 48 hrs using annexin-V FITC and PI staining by flow cytometry; type: functional; details: U-251, 48 h, read-out: Activity
[37] = system: U-251; assay: Increase in heme level in human U251 cells assessed as porphobilinogen deaminase level at 100 uM after 2 hrs by Western blot relative to control; type: functional
[38] = system: U-251; assay: Antiproliferative activity against human U251 cells assessed as PpIX release after 72 hrs by Hoechst test; type: functional, cell-based; details: U-251, 72 h
[39] = system: U-251; assay: Induction of apoptosis in human U251 cells assessed as early apoptotic cells at 100 uM after 48 hrs using annexin-V FITC and PI staining by flow cytometry in presence of Ac-LEHD-CHO; type: functional
[40] = system: U-251; assay: Cytotoxicity against human U251 cells after 72 hrs by Hoechst test; type: functional, cell-based; details: U-251, 72 h
[41] = system: U-251; assay: Increase in ROS production in human U251 cells at 100 uM after 4 hrs by FACS; type: functional, cell-based
[42] = system: U-251; assay: Increase in ROS production in human U251 cells at 100 uM after 4 hrs by FACS in presence of N-acetyl-L-cysteine; type: functional, cell-based
[43] = system: U-251; assay: Inhibition of 26S proteasome activity in human U251 cells at 1 mM after 48 hrs; type: cell-based
[44] = system: U-251; assay: Inhibition of 26S proteasome activity in human U251 cells at 0.5 mM after 24 hrs; type: cell-based

Row | SMILES | residual activity [2] | Activity [5] | residual activity [7] | Activity [8] | Activity [9] | fold change (FC) [10] | fold change (FC) [11] | Activity [12] | Activity [15] | Activity [18] | Activity [19] | Activity [21] | Activity [22] | Activity [23] | IC50 [24] | IC50 [25] | IC50 [27] | Activity [28] | IC50 [29] | IC50 [40] | further results
1 | CCCC(=O)OCOC(=O)CCC(=O)CN.Cl | 56% | 15% | 64% | Active | 17% | 6.6 | 12.4 | 11% | 260% | 19% | Active | 2% | 5% | 17% | 74 µM | 59 µM | 84 µM | inactive | 57 µM | 89 µM | fold change (FC) [1]: 1.4; fold change (FC) [3]: 5.4; inhibition [4]: 40%; Activity [6]: Active; Activity [13]: Active; fold change (FC) [14]: 9.5; Activity [16]: Active; Activity [17]: 68%; fold change (FC) [20]: 2; fold change (FC) [26]: 2.4; viability at 100 µM [30]: 81%; Activity [31]: Active; Activity [32]: Active; Activity [33]: 4%; Activity [34]: Active; viability at 100 µM [35]: 80%; viability at 100 µM [36]: 47%; fold change (FC) [37]: 8; IC50 [38]: 99 µM; Activity [39]: 2%
2 | CC(OC(=O)CCC(=O)CN)OC(=O)C(C)(C)C (configuration not stated) |  |  |  |  |  |  |  |  |  |  |  |  |  |  |  |  |  |  | 1390 µM | 2040 µM | 
3 | CCCC(=O)OCOP(=O)(OCC)OCC [(DIETHOXYPHOSPHORYLOXY)METHYL BUTYRATE] |  |  |  | Active |  |  |  |  |  |  |  |  |  |  |  |  |  |  |  | 89 µM | Activity [4]: Active; Activity [11]: inactive
4 | NCC(=O)CCC(=O)O [AMINOLEVULINIC ACID] | 100% | 17% | 102% |  | 6% | 3 | 7.2 | 17% | 130% | 7% | Active | 3% | 5% | 14% | 1740 µM | 2720 µM | 3480 µM | Active | 1570 µM | 2660 µM | Activity [41]: Active; viability at 100 µM [30]: 78%; Activity [33]: 2%; Activity [42]: inactive; viability at 100 µM [35]: 76%; viability at 100 µM [36]: 76%; fold change (FC) [37]: 2; Activity [43]: Active; IC50 [38]: 2720 µM; Activity [39]: 2%
5 | CCCC(=O)O [BUTYRIC ACID] | 74% |  | 80% |  |  |  |  |  | 126% |  |  |  |  |  |  |  |  |  |  | 932 µM | Activity [41]: Active; Activity [44]: Active; Activity [42]: Active
